GI50 and TGI data for 7 molecules are collected here from PubChem BioAssay (NCI).

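Cells were grown in 96-well plates and exposed to each compound for 48 hours at five concentrations; endpoints were interpolated linearly between bracketing concentrations, or set to the highest concentration if not reached. At the GI50, growth is halved. TGI marks complete inhibition of growth.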

What all share (experiment): NCI anticancer screen, dose series, 48 h
The test system of assay [1] is COLO 205 colon.
Assay [2] relates to U251 CNS.
In assay [3] the test system is HT29 colon.
Assay [4] deals with SK-MEL-5 melanoma.
The subject of assay [5] is MALME-3M melanoma.
In assay [6] the test system is OVCAR-5 ovarian.
In assay [7] the test system is MCF7 breast.
Assay [8] has as its system SK-MEL-28 melanoma.
Assay [9] relates to MDA-MB-231 breast.
The subject of assay [10] is SNB-19 CNS.

`NC(=O)Nc1ccc2ncnc(Nc3ccc(Cl)cc3)c2c1`: the GI50 in assay [1] is 30.6 µM; in [2] it was 25.4 µM; in [3] it was 25.3 µM; in assay [4] it was 13.6 µM; in [5], 28.2 µM; in [6], 15.8 µM. In addition, the GI50 is 26.9 µM in [7], 30.2 µM in [8], 13.7 µM in assay [9] and 14.1 µM in [10]. Also, the TGI was > 100 µM in assay [1]; > 100 µM in assay [2]; > 100 µM in [3]; 30.8 µM in assay [4]; > 77.9 µM in assay [5]; > 95 µM in [6]. The TGI is > 100 µM in assay [7], > 100 µM in assay [8], > 61.4 µM in [9] and > 100 µM in assay [10].
As for `Cc1cc(N(CCCNc2ccnc3cc(Cl)ccc23)Cc2cccs2)nc(Cl)n1`, the GI50 was 2.24 µM in [1]; 6.75 µM in assay [2]; 1.51 µM in [3]; 1.45 µM in assay [4]; 3.06 µM in assay [5]; 5.9 µM in assay [6]. Also, the GI50 in assay [7] is 3.06 µM; in assay [8], 4.87 µM; in assay [9], 3.36 µM; in [10], 7.58 µM. Further, the TGI was determined as 7.8 µM in assay [1]; 22.2 µM in [2]; 12.4 µM in assay [3]; 3.15 µM in [4]; 13.5 µM in assay [5]; 24.3 µM in [6]. In addition, the TGI in [7] was found to be 17.1 µM; in [8], 19 µM; in assay [9], 17.3 µM; in assay [10], 25.4 µM.
As for `Cc1cc(-c2ccccc2)c(C)n1Cc1ccc(Cl)cc1`, the GI50 is 5.96 µM in [1]; 4.65 µM in assay [2]; 3.28 µM in [3]; 4.23 µM in assay [4]; 3.85 µM in assay [5]; 12.3 µM in assay [6]. Besides, the GI50 is 3.11 µM in assay [7], 6.18 µM in assay [8], 6.17 µM in [9] and 36.4 µM in assay [10]. In addition, the TGI in [1] is 27.8 µM; in [2] it was > 100 µM; in assay [3] it was 17.6 µM; in assay [4], 66.8 µM; in assay [5], 39.1 µM; in assay [6] it was > 100 µM. Further, the TGI in [7] was > 100 µM; in assay [8], > 100 µM; in [9], 32.3 µM; in assay [10], > 100 µM.
In the case of `Clc1ccccc1-c1nc2ccccc2[nH]1`, the GI50 in assay [1], in assay [2], in assay [3], in assay [4], in assay [5] and in [6] was > 100 µM in each case. Also, the GI50 in assay [7], in [8], in assay [9] and in assay [10] was > 100 µM each time. Moreover, the TGI in [1], in [2], in [3], in assay [4], in assay [5] and in [6] was > 100 µM throughout. Also, the TGI in [7], in assay [8], in assay [9] and in assay [10] was > 100 µM each time.
As to `COc1cc(C(=O)/C=C/c2c(-c3ccc(F)cc3)nc3sccn23)cc(OC)c1OC`, the GI50 in assay [1] was 2.27 µM; in assay [2] it was 2.41 µM; in assay [3] it was 2.53 µM; in assay [4], 1.28 µM; in assay [5], 3.96 µM; in assay [6], 1.85 µM. Besides, the GI50 in assay [7] was 1.9 µM; in assay [8], 4.84 µM; in [9] it was 2.34 µM; in assay [10], 3.37 µM. In addition, the TGI in assay [1] is 6.98 µM; in assay [2] it was 9.23 µM; in assay [3], 6.11 µM; in [4] it was 2.81 µM; in [5], > 33.9 µM; in [6], 4.79 µM. For the same molecule, the TGI is 7.88 µM in assay [7], 17.2 µM in assay [8], > 29.8 µM in [9] and 27.8 µM in assay [10].
In the case of `Cc1ccc(C(=O)Nc2ccc(CN3CCN(C)CC3)c(C(F)(F)F)c2)cc1C#Cc1cncc2ncccc12`, the GI50 in assay [1] is 0.221 µM; in [2], 0.52 µM; in assay [3], 0.142 µM; in [4] it was 2.63 µM; in assay [5], 0.113 µM; in [6], 0.653 µM. The GI50 in assay [7] is 1.46 µM; in assay [8] it was 0.286 µM; in [9], 0.177 µM; in [10], 1.29 µM. In addition, the TGI in assay [1] was determined as 5.56 µM; in assay [2], 1.84 µM; in assay [3], 1.41 µM; in assay [4], 8.14 µM; in [5], 0.951 µM; in [6], 5.71 µM. In addition, the TGI in [7] is 3.44 µM; in assay [8], 1.55 µM; in assay [9], 1.1 µM; in [10] it was 2.62 µM.
Consider `CC(C)(C)c1ccc(C(=O)N/N=C/c2ccc(O)cc2O)cc1`, for which the GI50 in [1] is 0.377 µM; in assay [2] it was 0.483 µM; in assay [3], 0.885 µM; in assay [4], 0.913 µM; in [5] it was 0.478 µM; in assay [6], 0.661 µM. Besides, the GI50 in [7] was 0.322 µM; in assay [8] it was 0.595 µM; in assay [9], 0.5 µM; in assay [10], 0.825 µM. For the same molecule, the TGI is 6.76 µM in assay [1]; 14.9 µM in assay [2]; 8.33 µM in [3]; 3.4 µM in assay [4]; 5.19 µM in [5]; 14.7 µM in assay [6]. For the same molecule, the TGI in assay [7] was 12.7 µM; in [8], 13.9 µM; in assay [9], 5.83 µM; in [10], 17.9 µM.
